Numbers after ± are expanded uncertainties.
How the values were obtained:
[1] = refractive index (Na D-line) (dimensionless); mn = molality of the nth substance listed, in mol/kg; settings: 298.15 K, 101 kPa, Liquid, Standard Abbe refractometry
[2] = mn = molality of the nth substance listed, in mol/kg; settings: 101 kPa, Liquid, Vibrating tube method

OC[C@H]1O[C@@](CO)(O[C@H]2O[C@H](CO)[C@@H](O)[C@H](O)[C@H]2O)[C@@H](O)[C@@H]1O [D-sucrose] + O
[1]
Settings | refractive index
m1 = 0.05 | 1.3343 ± 0.0007
m1 = 0.1 | 1.3368 ± 0.0007
m1 = 0.2 | 1.3415 ± 0.0007
m1 = 0.3 | 1.3458 ± 0.0007
m1 = 0.5 | 1.3542 ± 0.0007
m1 = 0.8 | 1.3656 ± 0.0007

mass density [kg/m3], [2]
Settings | m1 = 0.05 | m1 = 0.1 | m1 = 0.2 | m1 = 0.3 | m1 = 0.5 | m1 = 0.8
288.15 K | 1005.67 ± 0.52 | 1012.18 ± 0.52 | 1024.44 ± 0.52 | 1036.52 ± 0.52 | 1059.36 ± 0.51 | 1089.54 ± 0.51
293.15 K | 1004.73 ± 0.52 | 1011.2 ± 0.52 | 1023.38 ± 0.52 | 1035.39 ± 0.52 | 1058.1 ± 0.51 | 1088.1 ± 0.51
298.15 K | 1003.53 ± 0.52 | 1009.97 ± 0.52 | 1022.08 ± 0.52 | 1034.03 ± 0.52 | 1056.62 ± 0.51 | 1086.46 ± 0.51
303.15 K | 1002.11 ± 0.52 | 1008.5 ± 0.52 | 1020.57 ± 0.52 | 1032.45 ± 0.52 | 1054.93 ± 0.51 | 1084.64 ± 0.51
308.15 K | 1000.46 ± 0.52 | 1006.83 ± 0.52 | 1018.84 ± 0.52 | 1030.68 ± 0.52 | 1053.07 ± 0.51 | 1082.65 ± 0.51

O=C[C@H](O)[C@@H](O)[C@H](O)[C@H](O)CO [D-glucose] + O
[1]
Settings | refractive index
m1 = 0.05 | 1.3331 ± 0.0007
m1 = 0.1 | 1.3343 ± 0.0007
m1 = 0.2 | 1.3368 ± 0.0007
m1 = 0.3 | 1.3392 ± 0.0007
m1 = 0.5 | 1.3443 ± 0.0007
m1 = 0.8 | 1.351 ± 0.0007

mass density [kg/m3], [2]
Settings | m1 = 0.05 | m1 = 0.1 | m1 = 0.2 | m1 = 0.3 | m1 = 0.5 | m1 = 0.8
288.15 K | 1002.58 ± 0.51 | 1006 ± 0.51 | 1012.64 ± 0.51 | 1019.21 ± 0.51 | 1031.87 ± 0.51 | 1050.04 ± 0.51
293.15 K | 1001.65 ± 0.51 | 1005.04 ± 0.51 | 1011.63 ± 0.51 | 1018.15 ± 0.51 | 1030.73 ± 0.51 | 1048.76 ± 0.51
298.15 K | 1000.46 ± 0.51 | 1003.84 ± 0.51 | 1010.38 ± 0.51 | 1016.85 ± 0.51 | 1029.34 ± 0.51 | 1047.27 ± 0.51
303.15 K | 999.043 ± 0.51 | 1002.39 ± 0.51 | – | 1015.33 ± 0.51 | 1027.75 ± 0.51 | 1045.58 ± 0.51
308.15 K | – | 1000.75 ± 0.51 | – | 1013.63 ± 0.51 | 1025.96 ± 0.51 | 1043.7 ± 0.51

CC(=O)NCCCCCCNC(C)=O [N,N'-diacetyl-1,6-hexanediamine] + O
[1]
Settings | refractive index
m1 = 0.0999 | 1.335 ± 0.0007
m1 = 0.1498 | 1.3365 ± 0.0007
m1 = 0.1998 | 1.338 ± 0.0007
m1 = 0.25 | 1.3396 ± 0.0007
m1 = 0.3001 | 1.3409 ± 0.0007
m1 = 0.3503 | 1.342 ± 0.0007
m1 = 0.3984 | 1.3433 ± 0.0007

mass density [kg/m3], [2]
Settings | m1 = 0.0999 | m1 = 0.1498 | m1 = 0.1998 | m1 = 0.25 | m1 = 0.3001 | m1 = 0.3503 | m1 = 0.3984
288.15 K | 1000.16 ± 0.5 | 1000.68 ± 0.5 | 1001.23 ± 0.5 | 1001.78 ± 0.5 | 1002.34 ± 0.5 | 1002.88 ± 0.5 | 1003.42 ± 0.5
293.15 K | 999.201 ± 0.5 | 999.691 ± 0.5 | 1000.2 ± 0.5 | 1000.72 ± 0.5 | 1001.25 ± 0.5 | 1001.75 ± 0.5 | 1002.26 ± 0.5
298.15 K | 997.982 ± 0.5 | 998.441 ± 0.5 | 998.923 ± 0.5 | 999.415 ± 0.5 | 999.908 ± 0.5 | 1000.38 ± 0.5 | 1000.87 ± 0.5
303.15 K | 996.53 ± 0.5 | 996.965 ± 0.5 | 997.419 ± 0.5 | 997.884 ± 0.5 | 998.347 ± 0.5 | 998.795 ± 0.5 | 999.248 ± 0.5
308.15 K | 994.869 ± 0.5 | 995.284 ± 0.5 | 995.708 ± 0.5 | 996.146 ± 0.5 | 996.58 ± 0.5 | 997.002 ± 0.5 | 997.432 ± 0.5

O [water] + CC(=O)NCCCCCCNC(C)=O
Settings | refractive index
[1], m2 = 0 | 1.332 ± 0.0007
